{"source": "paper PMC10611578", "about": "“Aβ1-6A2V(D) peptide, effective on Aβ aggregation, inhibits tau misfolding and protects the brain after traumatic brain injury” (Molecular Psychiatry, 2023)", "key": {"[1]": {"test_system": "tau (P301L mouse brain homogenate)", "assay": "Western blot of total tau level in P301L brain lysate", "format": "biochemical, human tau with P301L mutation, JNPL3 mice", "details": "50 µM, 2 h at 25 °C, 30 µg protein/100 µL, PBS pH 7.4, DAKO/actin band; mean ± SD, N = 3, p < 0.05", "source_text": "Male JNPL3 mice expressing 0N4R human tau with the P301L mutation (P301L) were obtained from Taconic Biosciences (New York, USA) (Tau Model 2508). Controls were non-transgenic (Non-tg) male mice with the same mixed C57BL/6, DBA/2, SW genetic background as P301L mice. Triple transgenic mice harboring human PS1(M146 V), APP(SW), and MAPT(P301L) transgenes, referred to as 3xTg-AD, were kindly provided by Dr. Oddo [34]. Male and female C57BL/6 J mice, referred to as wild type (WT), were purchased from Envigo (Italy).\nFig. 2 Effect of Aβ1-6A2V-TAT(D) on the toxicity caused in C. elegans by misfolded tau in P301L and TBI brain homogenates. A Brains from P301L mice were homogenized in 10 mM PBS, pH 7.4, and given to worms alone or in the presence of Aβ1-6A2V-TAT(D). B Worms were administered with brain homogenate (30 µg protein/100 worms/100 µL) in the absence or presence of Aβ1-6A2V-TAT(D) (0-200 µM). […] E Representative western blotting showing the total level of tau and tau quantification expressed as the mean volume of the DAKO band immunoreactivity/actin band. […] The reaction was then stopped, and samples were analyzed by western blot. […]\nLysates from brain homogenates of P301L mice (30 µg protein/100 µL) incubated for 2 h at 25°C with 50 µM Aβ1-6A2V-TAT(D), 50 µM Aβ1-6A2V(D), 50 µM TAT or 10 mM PBS, pH 7.4, were analyzed by immunoblotting using 10% SDS-PAGE gel and Western blotting analysis. […]"}, "[2]": {"details": "ref [16]; cited from earlier work"}, "[3]": {"test_system": "C. elegans", "details": "in vivo; cited from earlier work"}, "[4]": {"target": "T1, BACE (Homo sapiens, UniProt P56817)", "T1 construct": "purchased Abcam ab283408", "T1 sequence (P56817 46-501, species assumed)": "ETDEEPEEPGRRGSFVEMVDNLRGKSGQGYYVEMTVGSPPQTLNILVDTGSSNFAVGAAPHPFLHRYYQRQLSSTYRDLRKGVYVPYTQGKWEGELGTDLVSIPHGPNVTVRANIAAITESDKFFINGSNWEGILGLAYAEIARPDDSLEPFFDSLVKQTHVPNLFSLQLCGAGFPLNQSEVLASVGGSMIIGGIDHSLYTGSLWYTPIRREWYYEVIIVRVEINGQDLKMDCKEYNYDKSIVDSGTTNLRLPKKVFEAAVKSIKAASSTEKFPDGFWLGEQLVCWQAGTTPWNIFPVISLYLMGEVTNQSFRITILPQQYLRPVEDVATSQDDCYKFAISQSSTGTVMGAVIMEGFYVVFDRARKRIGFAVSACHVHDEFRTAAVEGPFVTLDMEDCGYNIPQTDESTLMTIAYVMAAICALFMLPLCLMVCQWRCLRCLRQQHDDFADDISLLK", "assay": "BACE1 Inhibitor Screening Kit in vitro", "format": "biochemical", "details": "BACE1 Inhibitor Screening Kit ab283408, 60 min at 37 °C, fluorescence Ex/Em 345/500 nm; read-out: IC50 for inhibition of BACE activity in vitro", "description": "The ability of Aβ1-6A2V(D) to inhibit BACE activity was measured in vitro as described in the BACE1 Inhibitor Screening Kit ab283408 (Abcam, Cambridge, UK). Increasing concentrations of Aβ1-6A2V(D) were employed. Fluorescence was read for 60 min at 37°C at Ex/Em= 345/500 nm using a spectrophotometer (Infinite M200, Tecan, Männedorf, Switzerland). BACE activity was measured in the ipsilateral cortex of 3xTg-AD TBI mice treated with or without the peptide using the β-Secretase Activity Fluorometric Assay Kit MAK237 (Sigma Aldrich, St. Louis, USA). The protein concentration of the samples was analyzed using the BCA assay, as previously described. The samples were diluted to obtain a final concentration of 25 µg proteins/50 µL and then processed according to the kit instructions. Fluorescence was read at Ex/Em = 355/495 nm.\nSupplementary Figure 7. Effect of Aβ1-6A2V(D) on the BACE activity. (A) Dose-dependent inhibitory effect of Aβ1-6A2V(D) on BACE activity determined in vitro. (B) BACE activity determined in the brain homogenates of 3xTg-AD TBI mice (N = 3) treated (TBI Aβ1-6A2V(D)) or not (TBI vehicle) with 50 mg/kg b.w. Aβ1-6A2V(D) and sacrificed 24 h after the last administration. Data are mean ± SD, one-way ANOVA, and Bonferroni’s post hoc test."}, "[5]": {"assay": "MALDI-TOF imaging brain biodistribution after intranasal administration, TBI mice", "format": "in vivo, mouse (3xTg-AD", "description": "The Aβ1-6A2V(D) was administered to 3xTg-AD and 24-month-old WT TBI underwent mice by repeated intranasal administration as described in [39]. In brief, mice were acclimatized for 2 weeks before the surgery and the treatment. Aβ1-6A2V(D) was administered to mice at 50 mg/kg body weight (b.w.) (about 5 µL/nostril/mouse, 10 µL total/each treatment session/mouse) starting at 10 min post-TBI and every 48 h up to 6 days post-injury, using a 20 µL pipette and gel loading pipette tip. At each treatment session, the mice were held in place for 30 seconds after the first 5 µL administration and then left free to move in a cage for 30 seconds before administering the remaining treatment/vehicle. Weight was assessed before each intranasal administration. Neurological functions were monitored longitudinally and plasma levels of neurofilament light (NfL) were assessed at sacrifice as detailed in the Supplementary information (sections ‘Behavioural test’ and ‘Plasmatic neurofilament light’). Seven days after surgery, the mice were sacrificed, the brain was removed, and ipsilateral cortical areas were dissected out, immediately frozen on dry ice, and stored at −80 °C until their use for biochemical and C. elegans studies. At 4 h, 24 h, 48 h, and 72 h after surgery, a subset of mice (n = 3) was sacrificed, and their brains were removed, frozen immediately in liquid nitrogen, and stored at −80 °C until matrix-assisted laser desorption/ionization (MALDI)-imaging analysis. The investigators were blinded to treatment allocation during the assessment of the results.\nFig. 3 Biodistribution of Aβ1-6A2V(D) in brain parenchyma of 3xTg-AD injured mice after intranasal administration. A Mice were subjected to TBI, randomly distributed into two groups, and treated intranasally 10 min post-injury with either a single dose of Aβ1-6A2V(D) (50 mg/kg b.w.) or saline (vehicle). MALDI-imaging analyses were performed 4-h, 24-h, 48-h, and 72-h post-administration. B Representative images of Aβ1-6A2V(D) biodistribution assessed by MALDI-TOF and imaged as a heatmap (red > Aβ1-6A2V(D) concentration > deep purple).\nStudies were carried out as described by Catania et al. to confirm that the intranasal administration of Aβ1-6A2V(D) to injured mice allows the efficient distribution of the peptide in the brain tissue. Brains from injured 3xTg-AD mice were used to prepare […] sections (14 μm thickness) at -20°C in a cryostat. Fourteen µm coronal sections of fresh-frozen brains were cut and serially collected from bregma +0.8 mm to -2.7 mm at 700 µm intervals for MALDI analysis and Cresyl violet staining to pair Aβ1-6A2V(D) biodistribution to anatomical structures. […]"}, "[6]": {"test_system": "Aβ soluble protofibrils", "details": "ref [3]; cited from earlier work", "source_text": "Alzheimer’s disease (AD) is a double proteinopathy characterized by amyloid-β (Aβ) and tau pathology and is the most common dementia in older adults. Despite enormous efforts that have been made in the last few decades to find effective therapy, there are still few weapons available to fight this disease. […] Since the approval of aducanumab, ..."}}, "note": "Square brackets hold non-standard residues; d marks the D form. Peptide text beside a SMILES is read from it."}
{"molecule": "GRKKRRQRRR [TAT, TAT48-56(D) (…), reference compound]", "values": [{"measurement": "Total tau protein level in P301L brain homogenate", "setting": "[1]", "value": "but not TAT alone, significantly reduced the tau protein level"}]}
{"molecule": "CC(C)[C@@H](NC(=O)[C@H](N)CC(=O)O)C(=O)N[C@H](CCC(=O)O)C(=O)N[C@H](Cc1ccccc1)C(=O)N[C@H](CCCNC(=N)N)C(=O)N[C@H](Cc1c[nH]cn1)C(=O)O", "note": "[Aβ1-6A2V(D)] (H-[dD][dV][dE][dF][dR][dH]-OH)", "values": [{"measurement": "Brain distribution after single intranasal administration, AD mouse", "setting": "[2]", "value": "distributed in the AD mouse brain"}, {"measurement": "Passage through the worm's membrane", "setting": "[3]", "value": "only in the presence of the TAT sequence, Aβ1-6A2V(D) can pass through the worm’s membrane"}, {"measurement": "IC50", "setting": "[4]", "value": 126, "unit": "nM"}, {"measurement": "Peptide level in brain areas close to the contusion site, 24 h", "setting": "[5]; intranasal 50 mg/kg b.w., 24 h after administration", "value": "high levels of peptide still detectable 24 h after the administration"}, {"measurement": "Presence of peptide in brain regions", "setting": "[5]; single intranasal dose 50 mg/kg b.w. 10 min post-injury, 4-h and 24-h", "value": "present in the cerebral cortex, hippocampus, caudate-putamen, and cerebellum"}, {"measurement": "Peptide level in brain, 72 h", "setting": "[5]; single intranasal dose 50 mg/kg b.w. 10 min post-injury, 72 h after administration", "value": "not detectable"}, {"measurement": "Peptide level in ipsi- and contra-lateral hemispheres, up to 48 h", "setting": "[5]; single intranasal dose 50 mg/kg b.w. 10 min post-injury, high levels persisting, although low, up to 48 h", "value": "high Aβ1-6A2V(D) levels were detected in the ipsi- and contra-lateral hemispheres that persisted, although at low levels, up to 48 h"}]}
{"molecule": "Lecanemab: a humanized monoclonal antibody that binds with high affinity to Aβ soluble protofibrils (antibody, chains of the INN, looked up, V domains shown) VH: EVQLVESGGGLVQPGGSLRLSCSASGFTFSSFGMHWVRQAPGKGLEWVAYISSGSSTIYYGDTVKGRFTISRDNAKNSLFLQMSSLRAEDTAVYYCAREGGYYYGRSYYTMDYWGQGTTVTVSS VL: DVVMTQSPLSLPVTPGAPASISCRSSQSIVHSNGNTYLEWYLQKPGQSPKLLIYKVSNRFSGVPDRFSGSGSGTDFTLRISRVEAEDVGIYYCFQGSHVPPTFGPGTKLEIK", "values": [{"measurement": "Binding affinity to Aβ soluble protofibrils", "setting": "[6]", "value": "binds with high affinity to Aβ soluble protofibrils"}]}
